According to US20250041387A1, “POLYPEPTIDE SEQUENCE OF KDM6B AND APPLICATION OF KDM6B IN REGULATING AND CONTROLLING FUNCTION OF MESENCHYMAL STEM CELL” (BEIJING STOMATOLOGICAL HOSPITAL, CAPITAL MEDICAL UNIVERSITY, priority 2021, published 2025):

Legend:
[1] = system: telomerase reverse transcriptase; assay: ELISA assay of telomerase reverse transcriptase in SCAPs; assay type: cell-based, human; conditions: SCAPs treated with polypeptide, FIG. 8B
Experimental: (§1) • (1) Pre-detection preparation: A standard curve was calculated and plotted using a standard concentration gradient of 400 ng/mL, 200 ng/ml, 100 ng/ml, 50 ng/mL, 25 ng/ml, 12.5 ng/mL, 6.25 ng/mL, and 0 ng/mL. • (2) 100 μL of the standards and samples were added to each well of a 96-well plate. The plate was covered with a provided sealing film, and incubated at 37° C. for 2 hours. The name of the sample was noted on the surface of the sealing film. • (3) The sample in each well was discarded and spin-dried without washing. • (4) 100 μL of Biotin-antibody (1×) was added to each well. The plate was covered with a sealing film, and incubated at […] for 1 hour. If Biotin-antibody (1×) appeared cloudy, Biotin-antibody was warmed to room temperature and stirred gently until clear. • (5) The sample in each well was discarded. Each well was added with 200 μL of Wash Buffer using a multichannel pipette and left to stand for 2 minutes for washing. This process was repeated twice for a total of three times of washing. Complete removal of liquid at each step was critical for good performance. After the last time of washing, the Wash Buffer was discarded, and the 96-well plate was turned upside down and dried with a clean paper. • (6) 100 μL of HRP-avidin (1×) was added to each well. The 96-well microtiter plate was covered with a new sealing film and incubated at 37° C. for 1 hour. • (7) The process of discarding samples and washing in […] was repeated 5 times. • (8) 90 μL of TMB Substrate was added to each well. The plate was incubated in the dark at 37° C. for 15-30 minutes. 50 μL of Stop Solution was added to each well, and the plate was gently taped to mix solution evenly. • (9) The optical density of each well was detected at 450 nm within 5 min using a microtiter plate reader.

[2] = target: KDM6B/WDR5 protein complex (Homo sapiens, UniProt P61964); assay: Co-IP of KDM6B/WDR5 complex in stem cells from apical papilla; assay type: cell-based; design: endogenous in cells; host or cells: stem cells from apical papilla (SCAPs); conditions: SCAPs treated with polypeptide, compared to control group; FIG. 8A
Experimental: Protein was extracted from cells of knockout group and overexpression group using IP lysate. The knockout group cells SCAPs-Scramsh and SCAPs-KDM6Bsh, SCAPs-Scramsh and SCAPs-WDR5sh, BMSCs-Scramsh and BMSCs-WDR5sh were added with KDM6B antibody, WDR5 antibody, and IgG antibody, respectively, and then rotated on a shaker at 4° C. overnight. On the next day, the cells were added with Protein A/G beads and rotated on a rotary shaker at 4° C. for 2 hours. A complex of protein-antibody-agarose bead was formed, and the formation of a protein complex of KDM6B and WDR5WB was detected by WB. The overexpression group cells SCAPs-Vector, SCAPs-HA-KDM6B, SCAPs-HA-KDM6B-mut102, and SCAPs-HA-KDM6B-mut114 were added with ProteinA/G beads with HA antibody, and cells SCAPs Vector and SCAPs-Myc-WDR5 were added with ProteinA/G beads with Myc antibody. All cells were incubated overnight to form a complex of protein-antibody-agarose bead. The formation of a protein complex of KDM6B and WDR5 was detected by WB method. • (2) Grouping: Input group (loading amount of 25 μg); antibody group (loading amount of 800 μg, 2 μg of antibody); IgG group (loading amount of 800 μg, 2 μg of antibody). Samples were diluted with lysate. • (3) Preparation of protein A/G beads
The protein A/G beads were washed 4 times with PBS, and centrifuged at 2000 g for 2 minutes. […]

[3] = system: telomerase reverse transcriptase; assay: ELISA assay of telomerase reverse transcriptase in BMSCs; assay type: cell-based, human; conditions: FIG. 4A
Experimental: as §1

WDR5 synthetic protein = WDR5 synthetic protein (Homo sapiens, UniProt P61964); assay: Polypeptide microarray of KDM6B incubated with biotin-labeled WDR5; assay type: binding; conditions: FIG. 3A, B; positive = optical density more than 30%
From the text: • (1) Synthesis of polypeptide chip: A polypeptide chip was designed by overlapping and synthesized according to the sequence of KDM6B protein, with a total of two arrays. • (2) Synthesis of polypeptide microarray: A matrix membrane was activated, and placed on a fully automated polypeptide chip synthesizer. A Fmoc-amino acid solution was automatically transferred to a specific position on the activated membrane according to the set procedure, to react with the membrane. The membrane was immersed sequentially into the blocking solution I and II to block side chains, and washed with dimethyl formamide (DMF). The membrane was placed in a deprotection solution to remove the Fmoc protective group at the amino-terminal, then washed with DMF, and dried with ethanol. The above steps were repeated until all polypeptide microarrays were completely synthesized. After the synthesis was completed, the protective groups of the side chains were removed with specific organic reagents. […] The control group was incubated with the blocking solution. • (6) Streptavidin-HRP incubation: The reaction reagent Streptavidin-HRP (High Sensitivity Streptavidin-HRP (prod #21133)) was diluted with the blocking solution in an ratio of 1:10000, and then the polypeptide microarray chip was incubated with 5 ml of the diluted Streptavidin-HRP under shaking at room temperature for 2 hours, and washed. • (7) Color development: ECL luminescence reagent was added, and digital imaging was performed on a Chempchemi digital imager. • (8) Scan of polypeptide microarray chip and data analysis of color spot: The colored polypeptide microarray chip was imaged at 425 nm using the Chempchemi Imaging System with 200 s exposure. The optical density of colored spots was analyzed using TotalLab image analysis software, and the optical density of each colored spot was calculated using the “Spot Edge Average” algorithm in the software, with the optical density of the surrounding background of each colored spot as a reference. […]

Substance | expression of telomerase reverse transcriptase (ELISA) [1] | binding of KDM6B to WDR5 (Co-IP) [2] | expression of telomerase reverse transcriptase (ELISA) [3] | binding degree to WDR5 on polypeptide microarray (optical density of spots) (WDR5 synthetic protein) | expression of telomerase reverse transcriptase (ELISA) ([1]; listed as 114 peptide) | expression of telomerase reverse transcriptase (ELISA) ([3]; listed as 114 peptide)
FITC-(Acp)-KEKSRRVLGNLDLQSYGRKKRRQRRR [peptide 102] | 0.03331 | reduced | 0.02236 | higher binding degree | – | –
FITC-(Acp)-ADLTISHCAADVVRAYGRKKRRQRRR [peptide 114] | promoted the expression | reduced | promote the expression | higher binding degree | 0.05168 | 0.03888
